{
  "source": "ChEMBL document CHEMBL1649532",
  "about": "“Trypanocidal activity of 8-methyl-5'-{[(Z)-4-aminobut-2-enyl]-(methylamino)}adenosine (Genz-644131), an adenosylmethionine decarboxylase inhibitor” (Antimicrob Agents Chemother, 2009)",
  "key": {"[1]": {"tested_on": "Trypanosoma brucei brucei", "experiment": "Trypanocidal activity against Trypanosoma brucei brucei EATRO after 48 hrs", "format": "functional, organism-based"}, "[2]": {"tested_on": "Trypanosoma brucei rhodesiense", "experiment": "Trypanocidal activity against Trypanosoma brucei rhodesiense KETRI2538 after 48 hrs", "format": "functional, organism-based", "conditions": "KETRI2538, 48 h"}, "[3]": {"tested_on": "Trypanosoma brucei rhodesiense", "experiment": "Ratio of Kinact to Kiapp for Trypanosoma brucei rhodesiense AdoMetDC"}, "[4]": {"tested_on": "Trypanosoma brucei rhodesiense", "experiment": "Trypanocidal activity against Trypanosoma brucei rhodesiense KETRI243 after 48 hrs", "format": "functional, organism-based", "conditions": "KETRI243, 48 h"}, "[5]": {"tested_on": "Trypanosoma brucei rhodesiense", "experiment": "Trypanocidal activity against Trypanosoma brucei rhodesiense KETRI2002 infected in mouse assessed as protection against trypanosomal infection at 2 mg/kg, ip QD administered 24 hrs postinfection", "format": "functional, organism-based", "parameters": "dose 2 mg/kg"}, "[6]": {"tested_on": "Trypanosoma brucei rhodesiense", "experiment": "Trypanocidal activity against Trypanosoma brucei rhodesiense KETRI243 infected in mouse assessed as protection against trypanosomal infection at 2 mg/kg, ip QD administered 24 hrs postinfection", "format": "functional, organism-based", "parameters": "dose 2 mg/kg"}, "[7]": {"tested_on": "Trypanosoma brucei rhodesiense", "experiment": "Trypanocidal activity against Trypanosoma brucei rhodesiense KETRI1992 infected in mouse assessed as protection against trypanosomal infection at 2 mg/kg, ip QD administered 24 hrs postinfection", "format": "functional, organism-based", "parameters": "dose 2 mg/kg"}, "[8]": {"tested_on": "Trypanosoma brucei rhodesiense", "experiment": "Trypanocidal activity against Trypanosoma brucei rhodesiense KETRI1992 infected in mouse assessed as average survival time at 2 mg/kg, ip QD administered 24 hrs postinfection", "format": "functional", "conditions": "route intraperitoneal"}, "[9]": {"tested_on": "Trypanosoma brucei brucei", "experiment": "Trypanocidal activity against Trypanosoma brucei brucei EATRO infected in mouse assessed as mean survival time at 2 mg/kg, ip QD for 4 days", "format": "functional", "conditions": "route intraperitoneal"}, "[10]": {"tested_on": "Trypanosoma brucei rhodesiense", "experiment": "Trypanocidal activity against Trypanosoma brucei rhodesiense KETRI243 infected in mouse assessed as average survival time at 2 mg/kg, ip QD administered 24 hrs postinfection", "format": "functional", "conditions": "route intraperitoneal"}},
  "note": "Calls of active or inactive are those of the source. The calls are words filed in the database; no cut-off is given here.",
  "data": [
    {"smiles": "CN(C/C=C\\CN)C[C@H]1O[C@@H](n2cnc3c(N)ncnc32)[C@H](O)[C@@H]1O", "values": [
      {"measurement": "IC50", "setting": "[1]", "result": 0.05, "unit": "mg/L"},
      {"measurement": "IC50", "setting": "[2]", "result": 0.021, "unit": "mg/L"},
      {"measurement": "Activity", "setting": "[3]", "result": 1.5, "unit": "min⁻¹ M⁻¹"},
      {"measurement": "IC50", "setting": "[4]", "result": 0.02, "unit": "mg/L"}
    ]},
    {"smiles": "N=C(N)c1ccc(OCCCCCOc2ccc(C(=N)N)cc2)cc1", "note": "[PENTAMIDINE]", "values": [
      {"measurement": "Activity", "setting": "[5]", "result": "Active"},
      {"measurement": "Activity", "setting": "[6]", "result": "inactive"},
      {"measurement": "Activity", "setting": "[7]", "result": "inactive"},
      {"measurement": "MST", "setting": "[8]", "result": 18, "unit": "days"},
      {"measurement": "MST", "setting": "[9]", "result": ">35", "unit": "days"},
      {"measurement": "MST", "setting": "[10]", "result": 11.6, "unit": "days"}
    ]}
  ]
}
